Where no end group is shown, it is not given here.
What was measured:
[1] = system: macrophages (PMA-induced U937 cells); experiment: flow cytometry macrophage apoptosis test (AV-FITC/PI); format: cell-based, Human; details: 24 h; Adalimumab 50 μg/mL, mPEG-SC20k-HM-3 13.5 μmol/L
Experimental: Human U937 cells are added to a 6-well plate (1.5×10^5 cells/mL), PMA (25 ng/mL) is added to perform induction for 48 h for differentiation into macrophages, and the macrophages are added to the positive drug Adalimumab group (50 μg/mL), the HM-3 control group (13.5 μmol/L), the mPEG-SC20k-HM-3 group (13.5 μmol/L), isovolumetric PBS is added to the blank group and the model group, and the cells are incubated in a CO2 incubator at 37° C. for 24 h. For the H2O2 group (3%, 20 μL/mL volume) test, hydrogen peroxide is added in the first half hour to normal cells for apoptosis induction control.
1000 g of solution is centrifuged for 5 min, and supernatant is discarded. Washing is performed once with PBS.
The apoptosis is tested on the flow cytometer according to the instructions of the AV-FITC/PI apoptosis kit.

TNF-α = experiment: in vivo imaging of TNF-α expression, AIA transgenic TNF-luc mice; set-up: species or system BALB/c transgenic TNF-luc mice; details: Adalimumab 8 mg/kg; for Fluorescence intensity (in vivo imaging): mPEG-SC20k-HM-3 20 mg/kg sc; for in vivo fluorescence densities: mPEG-SC20k-HM-3 20 mg/kg
Experimental: […] After the mice are lightly anesthetized with ether, the mice are fixed within 5-20 min and put into an in vivo imager, the imager is covered with an instrument lid, on-fluro and om-photo names in the desktop imaging interface of the computer are clicked, and the expose button is clicked to complete the fluorescence and white light photos of mice in vivo imaging.
(1) Imaging principle: Fluorescein substrate is injected intraperitoneally, and binds to luciferase carried on TNF-α protein to catalyze luminescence. Through the Luciferase fluorescent reporter group on TNF, the change of the fluorescence area in mice is observed, and the expression of TNF-α is evaluated, so as to evaluate the impact of mPEG-SC20k-HM-3 on the expression of TNF-α.
(2) Operation steps: Start the Carestreama in vivo imager, open the MI software, click the Capture button, and set photographing conditions. In the on-flour fluorescence mode, set the parameters X Binning. 2 pixels, Y Binning. 2 pixels; Illumination Source: Multi-wavelength; f-stop: 2.50; field of view (FOV) (mm): 120; focal plane (mm): Tray. Excitation filter: 430 nm, emission filter: 535 nm; exposure time: 30s. Click the Expose button to photograph fluorescence. Under the om-photo name, set the parameters X Binning. 0 pixels, Y Binning. 0 pixels; Illumination Source: None; f-stop: 2.50; FOV (mm): 120; focal plane (mm): Tray. Excitation filter: 0 nm, emission filter: 0 nm; exposure time: 0.175 s. Click the Expose button to photograph white light.
(3) Image processing and output: Analyze and adjust photos of fluorescence function imaging and white light structure imaging to the best, and the FOV is consistent. Click Window→Tie, Display→Invert, Image Display→overlay→Transparency for image stacking. In the image output process, in a navigation panel, click Annotation→Width/Heigh→Scale Analysis Image for setting, click Add Annotation Bar for adding a title, click Add Intensity Scale for adding a ruler, and set Horizontal, Size, Style, Number of Significant Dig, and Horizontal/Vertical Length. Output a picture in Tiff format.

[2] = system: macrophages (PMA-induced U937 cells); experiment: Western blot of protein expression in macrophages (PMA-induced U937 cells); format: cell-based, human
Experimental: 3.1 U937 cells are added to a 6-well plate (1.5×10^5 cells/mL), PMA (25 ng/mL) is used for induction for 48 h, and the cells adhere and differentiate into macrophages. Positive drug Adalimumab (25 μg/mL, 50 μg/mL, 100 μg/mL, 200 μg/mL, 400 μg/mL), Avastin (25 μg/mL, 50 μg/mL) are added, the final concentrations of mPEG-SC20k-HM-3 are 2.25, 4.5, 9.0, 13.5, 18.0, 36 μmol/L, and isovolumetric PBS is added to the blank group and the model group. The cells are incubated in a CO2 incubator at 37° C. for 24 or 48 h. Rat synovial cells are induced with LPS for 24 h and then mPEG-SC20k-HM-3 is administrated to final concentrations of 2.25, 4.5, 9.0, 13.5, 18.0 μmol/L, and the cells are incubated in a CO2 incubator at 37° C. for 48 h.
3.3 A protein extract solution is added at 20 μL/1×10^5 cells, and the cells are pipetted and dispersed, and stand at 4° C. for 30 min to lyse the cells.
3.4 1/4 volume of 5×protein loading buffer is added, and boiling water bath is performed for 5-10 min.
3.5 20 μL of protein sample is taken and 10% SDS-PAGE electrophoresis is performed.
3.6 The protein on the gel is transferred to the PVDF membrane by using a wetting transfer method with a constant current of 100 mA for 1-2.5 h.
3.7 The PVDF membrane is blocked with a blocking solution at room temperature for 2 h.
3.8 The membrane is washed for 3 times with PBST, 5 min each time. A primary antibody is added and the membrane stands at 4° C. overnight or is incubated at 37° C. for 2 h.
3.9 The membrane is washed for 3 times with PBST, 5 min each time. A secondary antibody is added and the membrane is incubated at room temperature for more than 2 h.
3.10 The membrane is exposed in a gel imager using an ECL detection kit.

[3] = with the increase of the dosage

| Substance | rate of early apoptosis of macrophages [1] [%] | rate of late apoptosis of macrophages [1] [%] | Fluorescence intensity (in vivo imaging) (TNF-α; 17 d (treatment starts)) | Fluorescence intensity (in vivo imaging) (TNF-α; 32 d) | in vivo fluorescence densities (TNF-α; day 17, as printed in text) | in vivo fluorescence densities (TNF-α; day 32, as printed in text) | dose with the best inhibitory effect on the expression of Integrin α5, Integrin β1, VEGFR2, HIF-1β, IL-6 proteins [2] [µM] | dose with the best inhibitory effect on the expression of TNFR1 protein [2] [µM] | dose with the best inhibitory effect on the expression of TNFR2, NF-κB and TNF-α proteins [2] [µM] | expression of HIF-1β and IL-6 protein in macrophages [2, 3] | expression of NF-κB protein factors in nuclei [2, 3] | expression of TNFR1 and TNFR2 protein factors in macrophages [2, 3] | expression of integrin α5, Integrin β1 and VEGFR2 proteins in macrophages [2, 3] | effect on integrin pathway angiogenesis [2] |
| --- | --- | --- | --- | --- | --- | --- | --- | --- | --- | --- | --- | --- | --- | --- |
| mPEG-SC20k-Ile-Val-Arg-Arg-Ala-Asp-Arg-Ala-Ala-Val-Pro-Gly-Gly-Gly-Gly-Arg-Gly-Asp ({mPEG‑SC 20k}-IVRRADRAAVPGGGGRGD) [polypeptide III, No. 3] | 28.0 | 14.7 | 41.604 ± 6.080 ×10^5 | 31.956 ± 1.170 ×10^5 | 41.6±1.68 10^6 | 31.96±1.17 10^6 | 13.5 | 18 | 4.5 | down-regulated | down-regulated | down-regulated | down-regulated |  |
| Adalimumab [reference compound] | 14.2 | 15.2 | 46.746 ± 3.457 ×10^5 | 26.446 ± 2.659 ×10^5 | 46.75±3.46 10^6 | 26.45±2.66 10^6 |  |  |  |  |  |  |  | no inhibitory effect |

From patent US20220202912A1, “Polypeptides in Preparation of Drugs for Treatment or Prevention of Rheumatoid Arthritis” (priority 2011, published 2022)
